Laboratory results as given in US20240150691A1, “BILE DUCT CHIP AND USE THEREOF” (Kyoto University, priority 2021, published 2024).

Experiments:
MRP2 = biological target: T1, MRP2 (Homo sapiens, UniProt Q92887); test: CDFDA transport assay; type: cell-based; details: 10 μM CDFDA in upper layer flow path, 3 hours, co-culturing with HuCCT1 cells versus PHH only
T1 construct: endogenous in cells; host or cells: primary human hepatocytes (PHH), alone or co-cultured with HuCCT1 cells, in the microfluidic device
T1 sequence (Q92887 whole entry): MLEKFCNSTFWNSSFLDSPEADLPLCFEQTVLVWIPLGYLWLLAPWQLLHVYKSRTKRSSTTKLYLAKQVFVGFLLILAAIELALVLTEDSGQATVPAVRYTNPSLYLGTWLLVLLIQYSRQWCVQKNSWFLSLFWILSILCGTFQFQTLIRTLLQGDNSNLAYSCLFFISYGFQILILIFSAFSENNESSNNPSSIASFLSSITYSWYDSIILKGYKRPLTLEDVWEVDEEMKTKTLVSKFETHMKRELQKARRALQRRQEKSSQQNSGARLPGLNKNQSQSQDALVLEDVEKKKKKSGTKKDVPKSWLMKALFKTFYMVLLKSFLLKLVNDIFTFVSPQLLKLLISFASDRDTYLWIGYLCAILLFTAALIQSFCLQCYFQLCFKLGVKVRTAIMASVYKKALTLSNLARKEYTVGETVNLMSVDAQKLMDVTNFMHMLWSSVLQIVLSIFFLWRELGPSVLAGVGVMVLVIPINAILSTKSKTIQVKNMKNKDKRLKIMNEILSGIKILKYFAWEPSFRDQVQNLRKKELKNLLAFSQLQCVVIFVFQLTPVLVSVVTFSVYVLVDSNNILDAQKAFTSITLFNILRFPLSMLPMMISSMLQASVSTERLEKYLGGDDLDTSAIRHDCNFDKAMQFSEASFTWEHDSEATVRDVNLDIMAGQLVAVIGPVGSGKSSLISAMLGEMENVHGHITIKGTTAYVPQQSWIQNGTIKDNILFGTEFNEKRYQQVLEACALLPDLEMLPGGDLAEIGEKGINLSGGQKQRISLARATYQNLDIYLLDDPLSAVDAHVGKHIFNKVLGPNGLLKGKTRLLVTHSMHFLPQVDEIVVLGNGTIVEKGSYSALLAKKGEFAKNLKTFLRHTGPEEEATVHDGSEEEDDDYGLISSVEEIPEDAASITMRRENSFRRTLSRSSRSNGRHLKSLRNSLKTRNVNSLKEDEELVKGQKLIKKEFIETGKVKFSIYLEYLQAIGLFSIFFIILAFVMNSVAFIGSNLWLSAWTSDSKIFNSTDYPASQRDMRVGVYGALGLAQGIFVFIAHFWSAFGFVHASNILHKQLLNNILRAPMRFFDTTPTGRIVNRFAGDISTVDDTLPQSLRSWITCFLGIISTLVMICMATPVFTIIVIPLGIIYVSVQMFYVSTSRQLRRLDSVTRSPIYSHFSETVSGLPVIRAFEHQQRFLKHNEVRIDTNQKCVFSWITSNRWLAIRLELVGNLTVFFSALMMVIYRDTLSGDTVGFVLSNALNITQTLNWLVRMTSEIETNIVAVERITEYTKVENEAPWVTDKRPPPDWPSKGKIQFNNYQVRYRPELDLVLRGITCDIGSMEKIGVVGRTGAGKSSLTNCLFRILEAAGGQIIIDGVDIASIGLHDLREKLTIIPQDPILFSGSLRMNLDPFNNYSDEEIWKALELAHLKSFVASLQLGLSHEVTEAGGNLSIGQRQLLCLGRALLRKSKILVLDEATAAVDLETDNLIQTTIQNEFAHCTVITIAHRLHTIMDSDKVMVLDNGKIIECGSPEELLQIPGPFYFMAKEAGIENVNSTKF
Protocol: 10 μM of 5(6)-carboxy-2′,7′-dichlorofluorescein diacetate (CDFDA) was added to the upper layer flow path. After 3 hours, the culture supernatant from the lower layer flow path was recovered. The fluorescence intensity of 5(6)-carboxy-2′,7′-dichlorofluorescein (CDF) in the recovered culture supernatant, which is a metabolite of CDFDA, was measured.
Subsequently, 5(6)-carboxy-2′,7′-dichlorofluorescein diacetate (CDFDA) was added to the upper layer flow path of the intrahepatic bile duct chip, and after 3 hours, the fluorescence of the culture medium in the lower layer flow path was measured. In living cells, CDFDA is hydrolyzed to 5(6)-carboxy-2′,7′-dichlorofluorescein (CDF). CDF is a substrate of MRP2, which is a transporter. Therefore, the CDF transported to the lower layer flow path can be quantified by measuring the fluorescence intensity.
FIG. 13 is a graph showing results of measuring the fluorescence intensity.

FXR = test: Change in bile acid signaling upon drug exposure in PHH (quantitative RT-PCR); details: 100 μM CDCA and 2.5 μM GW4046, 72 hours, PHH in microfluidic device or polystyrene plate
Protocol: Subsequently, a change in bile acid signaling upon drug exposure was examined.
Subsequently, the gene expression levels of BSEP and CYP7A1 were measured by quantitative RT-PCR.

[1] = Drug absorption in microfluidic device without PHH (LC-MS/MS); type: physicochemical; details: for Drug absorption rate: Microfluidic device/Polystyrene plate; for Drug absorption rate / concentration as % of initial concentration: without PHH; for concentration during the observation period: 1 to 4 hours, microfluidic device; for concentration as % of initial concentration: 1 hour after the injection into the microfluidic device; for absorption in the microfluidic device: PDMS device without PHH
Protocol: (§1) A culture medium containing MDZ, DIC, PHE, BUF, or MPHT was added to a microfluidic device or a polystyrene plate. Subsequently, 1, 2, and 4 hours after the addition of the drugs, the amounts of these drugs were quantified with LC-MS/MS.
as §1, with “APAP (a CYP1A2 metabolite), 1OH-MDZ (a CYP3A4 metabolite), 4OH-DIC (a CYP2C9 metabolite), 4OH-MPHT (a CYP2C19 metabolite),” for “MDZ, DIC, PHE, BUF,”, “1OH-BUF (a CYP2D6 metabolite)” for “MPHT”
Subsequently, it was examined whether the absorption of the drugs and metabolites could be predicted by the relative physicochemical characteristics between the microfluidic device and the polystyrene plate. The drug absorption rate between the microfluidic device and the polystyrene plate was calculated. Subsequently, a correlation coefficient R^2 value between the drug absorption rate and the physicochemical characteristics (DiffCoef, M Log P, S+Log P, S+log D, MWt, and tPSA) of the drugs was calculated.

CYP2B6 = test: CYP induction test (quantitative RT-PCR) in PHH; details: 500 μM phenobarbital, 48 hours, versus DMSO
Protocol: (§2) PHH was treated with 50 μM omeprazole, 500 μM phenobarbital, or 20 μM rifampicin (all of which are from FUJIFILM Wako Pure Chemical Corporation) for 48 hours. Each of these drugs is known to induce CYP1A2, 2B6, and 3A4. In order to measure the inducibility of CYP1A2, 2B6, and 3A4, the expression level of CYP was measured by quantitative RT-PCR. The expression level of the target gene was standardized with the expression level of GAPDH. The inducibility was calculated as a change in expression level in terms of folds in cells treated with DMSO.
(§3) PHH was seeded in each of a microfluidic device and a polystyrene plate and cultured for 24 hours. Subsequently, the cultured PHH was treated with 50 μM omeprazole, 500 μM phenobarbital, or […] rifampicin for 48 hours. […] Subsequently, the expression level of each CYP gene was measured by quantitative RT-PCR. Cells treated with DMSO (final concentration: 0.1%) were used as a control.

CYP3A4 = test: Measurement of CYP activity using CYP substrates in PHH (MDZ to 1OH-MDZ); type: in vitro ADME, human
Protocol: The LC-MS/MS analysis was carried out to measure the activity of CYP. Prior to a CYP substrate treatment, PHH was cultured in DMEM containing 10 mM HEPES for 30 minutes. Subsequently, the PHH was cultured in a culture medium containing 5 μM MDZ (the metabolite thereof is 1OH-MDZ), 50 μM MPHT (the metabolite thereof is 4OH-MPHT), 5 μM DIC (the metabolite thereof is 4OH-DIC), 10 μM BUF (the metabolite thereof is 1OH-BUF), or 50 μM PHE (the metabolite thereof is APAP). The supernatant was recovered 1, 2, and 4 hours after the treatment with the substrate. At the time of recovering the supernatant, an equal amount of a culture medium containing the substrate was added.
The recovered supernatant was mixed with acetonitrile (FUJIFILM Wako Pure Chemical Corporation) containing an equal volume of 5 μM propranolol (internal standard). The specimen was filtered through a Cosmonice Filter W (Nacalai Tesque, Inc.) having a pore size of 0.45 μm, the supernatant was subsequently analyzed by LC-MS/MS, and the concentration of the metabolite was measured based on the standard curve. The LC-MS/MS analysis was carried out using LCMS-8040 (Shimadzu Corporation).
Subsequently, the drug metabolic activities of the PHH cultured in the PDMS device and the PS plate were compared. First, PHH was treated with each of MDZ, DIC, PHE, BUF, and MPHT, which are substrates of CYP3A4, CYP2C9, CYP1A2, CYP2D6, and CYP2C19. Subsequently, after 1, 2, and 4 hours, the amounts of the metabolites (OH-MDZ, 4OH-DIC, APAP, 1OH-BUF, and 4OH-MPHT) generated in the culture medium were measured by LC-MS/MS.

[2] = test system: GFP-expressing HuCCT1 cells; test: Formation of tubular bile duct-like structure in microfluidic device; type: cell-based, human; details: 10 ng/mL in culture medium, 4 days, lower layer flow path
Protocol: GFP-expressing HuCCT1 cells were seeded in the lower layer flow path of the microfluidic device in the presence or absence of 10 ng/mL of DLL1 or DLL4, and after 4 days, a cross-sectional image of the microfluidic device was acquired.

CYP3A = type: in vitro ADME, human
Protocol: The supernatant was recovered 1, 2, and 4 hours after the treatment with the substrate. At the time of recovering the supernatant, an equal volume of a culture medium containing the substrate was added.
A fraction (20 μL) of the recovered supernatant was mixed with 20 μL of Milli-Q water and 120 μL of acetonitrile containing […] 10 nM of an internal standard (fluvastatin, FUJIFILM Wako Pure Chemical Corporation). After centrifugation, 100 μL of the supernatant was analyzed by LC-MS/MS.
Chromatography was carried out using a Nexera X2 LC system (Shimadzu Corporation), and quantification was carried out using QTRAP 5500+ (AB Sciex LLC).
A mass spectrometer was set to an MRM mode and operated with an electrospray ionization source.

CYP1A2 = test: CYP induction test (quantitative RT-PCR) in PHH; type: cell-based, human; details: 50 μM omeprazole, 48 hours, versus DMSO
Protocol: as §2, §3

[3] = Measurement of active TGF-β1 in culture supernatant (ELISA), adsorption to culture vessel; details: 100 ng/mL TGF-β1, 48 hours
Protocol: PHH was treated with 100 ng/mL of TGF-β1 for 48 hours. In order to quantify active TGF-β1 in the supernatant, the culture medium was recovered and analyzed according to the instruction manual using a TGF beta-1 Human ELISA Kit (BMS249-4, Thermo Fisher Scientific, Inc.). The amount of active TGF-β1 was calculated based on each standard.
(§4) Subsequently, the cellular response of the PHH cultured in the microfluidic device and the polystyrene plate to a recombinant protein was examined. Specifically, PHH was treated with transforming growth factor-β1 (TGF-β1), which is one of the causative factors of hepatic fibrosis. The PHH was exposed to 100 ng/mL TGF-β1 for 48 hours. Subsequently, the amount of TGF-β1 in the cell culture supernatant was measured according to ELISA.
FIG. 35 is a graph showing the results of ELISA. In FIG. 35, “top” indicates the results for the upper layer flow path, and “bottom” indicates the results for the lower layer flow path.

PHH = test: Fibrosis marker gene expression in PHH treated with TGF-β1 (quantitative RT-PCR); type: cell-based, human
Protocol: as §4
Subsequently, the gene expression levels of ACTA2, COL1A1, and TIMP1, which are fibrosis markers, were measured by quantitative RT-PCR.
In FIG. 36, the vertical axis indicates a relative value in a case where the gene expression level in the cells (control) treated with phosphate buffered saline (PBS) is set to 1. […] The data is indicated as average value±standard deviation (n=3).
Subsequently, the gene expression level of TGF-β type II receptor (TGFBR2) was measured. […] Subsequently, the gene expression level of TGFBR2 was measured by quantitative RT-PCR.

[4] = test system: PHH and the HuCCT1 cells of the intrahepatic bile duct chip; test: Response to bile acid signaling in intrahepatic bile duct chip (quantitative RT-PCR); type: cell-based, human; details: 100 μM CDCA, 72 hours, versus DMSO
Protocol: In addition, the response to bile acid signaling in PHH was examined. Chenodeoxycholic acid (CDCA) is one of the major bile acids. […] In addition, a specimen treated with dimethyl sulfoxide (DMSO) instead of CDCA was also prepared for comparison. Subsequently, the gene expression levels of BSEP, NTCP, and CYP7A1 were measured according to quantitative RT-PCR. […] In FIG. 9, the vertical axis indicates a relative value of the expression level of each gene in a case where the expression level in a case where DMSO has been treated is set to 1. […] All data are indicated as average value±standard deviation (n=3).

[5] = microfluidic device versus polystyrene plate
[6] = 100 ng/mL TGF-β1, 48 hours, microfluidic device or polystyrene plate, versus PBS

5(6)-carboxy-2′,7′-dichlorofluorescein [CDF]
amount of the CDF transported to the lower layer flow path (MRP2): increases

CC(C)c1onc(-c2c(Cl)cccc2Cl)c1COc1ccc(/C=C/c2cccc(C(=O)O)c2)c(Cl)c1 [GW4046]
BSEP gene expression level (FXR): increased in both the PHH cultured in the microfluidic device and the PHH cultured on the polystyrene plate

CCOc1ccc(NC(C)=O)cc1 [Phenacetin, phenacetin]
Drug absorption rate [1]: 0.9569

CCC1(c2ccccc2)C(=O)NC(=O)NC1=O [phenobarbital]
CYP2B6 expression level (CYP2B6): induced in both the microfluidic device and the polystyrene plate

Cc1ncc2n1-c1ccc(Cl)cc1C(c1ccccc1F)=NC2 [Midazolam, midazolam]
amount of the metabolite, microfluidic device versus polystyrene plate (CYP3A4; PHH, 5 μM MDZ): smaller | clearance (rate of drug metabolite formation divided by concentration of the drug in the culture medium) (CYP3A4; [5]): no difference | concentration during the observation period [1]: constant | concentration as % of initial concentration [1]: 9.5% | Drug absorption rate [1]: 10.41 | absorption in the microfluidic device [1]: absorbed in the microfluidic device

CCc1cccc2cc(C(O)CNC(C)(C)C)oc12 (centres unmarked) [Bufuralol, bufuralol]
concentration during the observation period [1]: constant | concentration as % of initial concentration [1]: 30% | Drug absorption rate [1]: 3.327 | absorption in the microfluidic device [1]: absorbed in the microfluidic device

DLL4: recombinant human Delta Like Canonical Notch Ligand 4, lumenization factor
formation of the tubular bile duct-like structure [2]: accelerates the formation of the tubular bile duct-like structure

OCc1ncc2n1-c1ccc(Cl)cc1C(c1ccccc1F)=NC2 [1-hydroxymidazolam]
formation rate of metabolite, microfluidic device versus polystyrene plate (CYP3A4; PHH, 5 μM MDZ): similar | concentration during the observation period [1]: constant | Drug absorption rate [1]: 1.714 | absorption in the microfluidic device [1]: also absorbed in the PDMS device

CC(C)c1c(C(=O)Nc2ccccc2O)c(-c2ccccc2)c(-c2ccc(F)cc2)n1CCC(O)CC(O)CC(=O)O (centres unmarked) [2OH-ATV, 2-hydroxyatorvastatin]
formation of 2OH-ATV (CYP3A; PHH, 1 μM ATV, 1, 2 and 4 hours): observed in a time-dependent manner | formation rate of 2OH-ATV in PHH cultured in the microfluidic device (CYP3A; [5]): partially reduced

COc1ccc2[nH]c([S+]([O-])Cc3ncc(C)c(OC)c3C)nc2c1 (centres unmarked) [omeprazole]
CYP1A2 expression level (CYP1A2): induced in both the microfluidic device and the polystyrene plate

O=C(O)Cc1ccccc1Nc1c(Cl)cccc1Cl [Diclofenac, diclofenac]
Drug absorption rate [1]: 1.043

CC[C@@]1(c2ccccc2)NC(=O)N(C)C1=O [S-mephenytoin]
Drug absorption rate [1]: 0.9897

TGF-β1: recombinant protein, one of the causative factors of hepatic fibrosis
adsorption of TGF-β1 to the microfluidic device [3]: has not allowed the adsorption | adsorption of TGF-β1 to the polystyrene plate [3]: allowed the adsorption | ACTA2 gene expression level (PHH; [6]): increased | COL1A1 gene expression level (PHH; [6]): increased | TIMP1 gene expression level (PHH; [6]): increased | TGFBR2 gene expression level (PHH; TGF-β1 treatment, PHH in microfluidic device and polystyrene plate): not changed

CCCC(C(=O)OCCN(CC)CC)(c1ccccc1)c1ccccc1 [SKF-525A]
formation of 2OH-ATV on treatment with pan-CYP inhibitor (CYP3A; PHH, 100 μM SKF-525A, 1 μM ATV): significantly reduced

C[C@H](CCC(=O)O)[C@H]1CC[C@H]2[C@@H]3[C@H](O)C[C@@H]4C[C@H](O)CC[C@]4(C)[C@H]3CC[C@]12C [CDCA, chenodeoxycholic acid]
CYP7A1 gene expression level (FXR): decreased only in the microfluidic device | BSEP gene expression level [4]: increased | CYP7A1 gene expression level [4]: decreased | NTCP gene expression level [4]: increased
